Calls of active or inactive are those of the source. The calls are words filed in the database; no cut-off is given here.
Key:
[1] = (§1) against A against n against t against i against p against r against o against l against i against f against e against r against a against t against i against v against e against a against c against t against i against v against i against t against y against a against g against a against i against n against s against t against h against u against m against a against n against K against 5 against 6 against 2 against c against e against l against l against s against a against s against s against e against s against s against e against d against a against s against r against e against d against u against c against t against i against o against n against i against n against c against e against l against l against v against i against a against b against i against l against i against t against y against m against e against a against s against u against r against e against d against a against f against t against e against r against 7 against 2 against h against r against s against b against y against M against T against T against a against s against s against a against y against; assay type: functional, tissue-based, Homo sapiens; details: k562
[2] = tested on: HepG2; experiment: Antiproliferative against human HepG2 cells assessed as reduction in cell viability measured after 72 hrs by MTT assay; assay type: functional, cell-based; details: HepG2, 72 h
[3] = as §1, with “n against H against C” for “n against K against 5”, “H against C against T” for “K against 5 against 6”, “C against T against -” for “5 against 6 against 2”, “T against - against 8 against c” for “6 against 2 against c”; assay type: functional, tissue-based, Homo sapiens; details: hct-8
[4] = against A against n against t against i against p against r against o against l against i against f against e against r against a against t against i against v against e against a against c against t against i against v against i against t against y against a against g against a against i against n against s against t against h against u against m against a against n against M against D against A against - against M against B against - against 2 against 3 against 1 against c against e against l against l against s against a against s against s against e against s against s against e against d against a against s against r against e against d against u against c against t against i against o against n against i against n against c against e against l against l against v against i against a against b against i against l against i against t against y against m against e against a against s against u against r against e against d against a against f against t against e against r against 7 against 2 against h against r against s against b against y against M against T against T against a against s against s against a against y against; assay type: functional, tissue-based, Homo sapiens; details: mda-mb-231
[5] = against C against y against t against o against t against o against x against i against c against i against t against y against a against g against a against i against n against s against t against h against u against m against a against n against H against F against L against - against 1 against c against e against l against l against s against a against s against s against e against s against s against e against d against a against s against r against e against d against u against c against t against i against o against n against i against n against c against e against l against l against v against i against a against b against i against l against i against t against y against m against e against a against s against u against r against e against d against a against f against t against e against r against 7 against 2 against h against r against s against b against y against M against T against T against a against s against s against a against y against; assay type: ADME, tissue-based; details: Homo sapiens, HFL1
[6] = tested on: H22; experiment: Anti-tumor activity against mouse H22 cells allografted in ICR mice assessed as reduction in tumor weight at 6 mg/kg, iv administered every 2 days for 21 days; assay type: functional; details: 504 h, time 21 day
[7] = species: Sus scrofa; experiment: Induction of porcine brain tubulin polymerization assessed as induction of microtubule assembly by measuring increase in absorbance at 10 uM measured for 60 mins by fluorescence based analysis; assay type: tissue-based
[8] = tested on: H22; experiment: Antiproliferative activity against mouse H22 cells assessed as inhibition of cell growth by MTT assay; assay type: functional, cell-based
[9] = Inhibition of porcine brain tubulin polymerization assessed as inhibition of microtubule assembly by measuring decrease in absorbance measured for 60 mins by fluorescence based analysis; assay type: tissue-based, Sus scrofa
[10] = species: Sus scrofa; experiment: Displacement of [3H]colchicine from porcine brain tubulin at 1 uM incubated for 2 hrs by TopCount scintillation counting method relative to control; assay type: tissue-based
[11] = species: Sus scrofa; experiment: Displacement of [3H]colchicine from porcine brain tubulin at 5 uM incubated for 2 hrs by TopCount scintillation counting method relative to control; assay type: tissue-based
[12] = tested on: H22; experiment: Anti-tumor activity against mouse H22 cells allografted in ICR mice assessed as reduction in tumor weight at 30 mg/kg, iv administered daily for 21 days; assay type: functional; details: 504 h, time 21 day
[13] = tested on: H22; experiment: Anti-tumor activity against mouse H22 cells allografted in ICR mice assessed as reduction in tumor weight at 15 mg/kg, iv administered daily for 21 days; assay type: functional; details: 504 h, time 21 day
[14] = tested on: K562; experiment: Induction of cell cycle arrest in human K562 cells assessed as accumulation at G1 phase at 3 nM incubated for 48 hrs by propidium iodide/RNase staining based flow cytometry (reference value: 38.75%); assay type: functional
[15] = tested on: K562; experiment: Induction of cell cycle arrest in human K562 cells assessed as accumulation at S phase at 3 nM incubated for 48 hrs by propidium iodide/RNase staining based flow cytometry (reference value: 53.42%); assay type: functional
[16] = tested on: K562; experiment: Induction of cell cycle arrest in human K562 cells assessed as accumulation at G2/M phase at 3 nM incubated for 48 hrs by propidium iodide/RNase staining based flow cytometry (reference value: 7.83%); assay type: functional
[17] = tested on: K562; experiment: Induction of cell cycle arrest in human K562 cells assessed as accumulation at G1 phase at 6 nM incubated for 48 hrs by propidium iodide/RNase staining based flow cytometry (reference value: 38.75%); assay type: functional
[18] = tested on: K562; experiment: Induction of cell cycle arrest in human K562 cells assessed as accumulation at S phase at 6 nM incubated for 48 hrs by propidium iodide/RNase staining based flow cytometry (reference value: 53.42%); assay type: functional
[19] = tested on: K562; experiment: Induction of cell cycle arrest in human K562 cells assessed as accumulation at G2/M phase at 6 nM incubated for 48 hrs by propidium iodide/RNase staining based flow cytometry (reference value: 7.83%); assay type: functional
[20] = tested on: K562; experiment: Induction of cell cycle arrest in human K562 cells assessed as accumulation at G1 phase at 12 nM incubated for 48 hrs by propidium iodide/RNase staining based flow cytometry (reference value: 38.75%); assay type: functional
[21] = tested on: K562; experiment: Induction of cell cycle arrest in human K562 cells assessed as accumulation at S phase at 12 nM incubated for 48 hrs by propidium iodide/RNase staining based flow cytometry (reference value: 53.42%); assay type: functional
[22] = tested on: K562; experiment: Induction of cell cycle arrest in human K562 cells assessed as accumulation at G2/M phase at 12 nM incubated for 48 hrs by propidium iodide/RNase staining based flow cytometry (reference value: 7.83%); assay type: functional

Structure (SMILES) | IC50 [1] | IC50 [2] | IC50 [3] | IC50 [4] | IC50 [5] | also measured
C=C(c1cc(OC)nc(OC)c1)c1ccc2[nH]ccc2c1 | > 1000 nM | – | – | – | – | –
C=C(c1cc(OC)nc(OC)c1)c1cn(C)c2ccccc12 | > 1000 nM | – | – | – | – | –
C=C(c1cc(C)nc(C)c1)c1ccc2c(ccn2C)c1 | 21 nM | 30 nM | 31 nM | 34 nM | 176 nM | –
CC(=O)O[C@H]1C(=O)[C@@]2(C)[C@H]([C@H](OC(=O)c3ccccc3)[C@]3(O)C[C@H](OC(=O)[C@H](O)[C@@H](NC(=O)c4ccccc4)c4ccccc4)C(C)=C1C3(C)C)[C@]1(OC(C)=O)CO[C@@H]1C[C@@H]2O [PACLITAXEL] | – | – | – | – | – | inhibition in vivo at 6 mg/kg [6]: 64.3%; Activity [7]: Active; IC50 [8]: 84 nM
C=C(c1cc(C)nc(C)c1)c1ccc(OC)c(O)c1 | 12 nM | 27 nM | 31 nM | 29 nM | 86 nM | –
C=C(c1cc(N2CCCC2)nc(N2CCCC2)c1)c1ccc(OC)c(O)c1 | > 1000 nM | – | – | – | – | –
C=C(c1cc(OC)nc(OC)c1)c1ccc(OC)c(OC)c1 | > 1000 nM | – | – | – | – | –
C=C(c1cc(OC)nc(OC)c1)c1cc(OC)c(OC)c(OC)c1 | > 1000 nM | – | – | – | – | –
C=C(c1cc(OC)nc(OC)c1)c1ccc2c(ccn2C)c1 | 181 nM | 300 nM | 288 nM | 308 nM | 879 nM | –
C=C(c1ccnc(C)c1)c1ccc(OC)c(O)c1 | 24 nM | 31 nM | 32 nM | 31 nM | 189 nM | –
C=C(c1cc(OC)nc(OC)c1)c1c[nH]c2cc(OC)ccc12 | > 1000 nM | – | – | – | – | –
C=C(c1cc(OC)nc(OC)c1)c1cn(C)c2cc(OC)ccc12 | > 1000 nM | – | – | – | – | –
C=C(c1cc(Cl)nc(N2CCNCC2)c1)c1ccc(OC)c(O)c1 | > 1000 nM | – | – | – | – | –
C=C(c1cc(OC)nc(OC)c1)c1cccc2[nH]ccc12 | > 1000 nM | – | – | – | – | –
C=C(c1ccncc1)c1ccc(OC)c(O)c1 | 151 nM | 261 nM | 222 nM | 208 nM | 696 nM | –
C=C(c1ccc(OC)c(O)c1)c1cc(OC)c(OC)c(OC)c1 | 6 nM | 10 nM | 10 nM | 12 nM | 86 nM | IC50 [9]: 2370 nM; inhibition [10]: 74%; inhibition [11]: 84.6%; inhibition in vivo at 30 mg/kg/day [12]: 66.9%; inhibition in vivo at 15 mg/kg/day [13]: 56.6%; Activity [14]: 37.19%; Activity [15]: 51.37%; Activity [16]: 11.45%; Activity [17]: 38.07%; Activity [18]: 48.36%; Activity [19]: 13.57%; Activity [20]: 36.01%; Activity [21]: 45.55%; Activity [22]: 18.44%; IC50 [8]: 8 nM
C=C(c1cc(OC)nc(OC)c1)c1cccc2c1ccn2C | > 1000 nM | – | – | – | – | –
C=C(c1cc(Cl)nc(N(C)C)c1)c1ccc(OC)c(O)c1 | 16 nM | 27 nM | 29 nM | 29 nM | 114 nM | –
C=C(c1cc(OC)nc(OC)c1)c1ccc(OC)c(O)c1 | 44 nM | 77 nM | 86 nM | 84 nM | 792 nM | –
C=C(c1cc(N2CCOCC2)nc(N2CCOCC2)c1)c1ccc(OC)c(O)c1 | > 1000 nM | – | – | – | – | –
C=C(c1cc(OC)nc(OC)c1)c1ccc2c(c1)OCO2 | > 1000 nM | – | – | – | – | –
C=C(c1cc(OC)nc(OC)c1)c1c[nH]c2ccccc12 | > 1000 nM | – | – | – | – | –

Source: ChEMBL document CHEMBL4765299 (Eur J Med Chem, 2020)
